# Results: article PMC10850145, “Hormonal steroids induce multidrug resistance and stress response genes in Neisseria gonorrhoeae by binding to MtrR” (Nature Communications, 2024)
# Several values for one entry are separate records, joined by “and”; a condition that tells them apart may be missing. Equal entries are not always repeated. Where two headings read alike, the source gives them in different places.
# Tests used:
# rpoH-lacZ expression = assay type: cell-based, Neisseria gonorrhoeae; settings: for Plate-6 (Testosterone) Miller units, Mean: lower four plate rows
# FA19-rpoH-lacZ = assay: Gonococcal growth in liquid culture (GC broth) with hormones (Fig S7)
compound,measurement,setting,value
"C[C@]12CC[C@H]3[C@@H](CCC4=CC(=O)CC[C@@]43C)[C@@H]1CC[C@@H]2O [Testosterone, testosterone]","β-galactosidase activity, rpoH-lacZ, Mean","rpoH-lacZ expression; strain ΔmtrR (FA19 ∆mtrR/pLES94-rpoH), hormone 50 µM",119 Miller units
same,"β-galactosidase activity, rpoH-lacZ, Mean","rpoH-lacZ expression; strain ΔmtrR + mtrR D171A (pGCC3-mtrR D171A), hormone 6.25 µM",64 Miller units
same,"β-galactosidase activity, rpoH-lacZ, Mean","rpoH-lacZ expression; strain ΔmtrR + mtrR D171A (pGCC3-mtrR D171A), hormone 12.5 µM",62 Miller units
same,"β-galactosidase activity, rpoH-lacZ, Mean","rpoH-lacZ expression; strain ΔmtrR + mtrR D171A (pGCC3-mtrR D171A), hormone 25 µM",65 Miller units
same,"β-galactosidase activity, rpoH-lacZ, Mean","rpoH-lacZ expression; strain ΔmtrR + mtrR D171A (pGCC3-mtrR D171A), hormone 50 µM",57 Miller units
same,"β-galactosidase activity, rpoH-lacZ, Mean","rpoH-lacZ expression; strain ΔmtrR + mtrR WT (pGCC3-mtrR), hormone 6.25 µM",43 Miller units
same,"β-galactosidase activity, rpoH-lacZ, Mean","rpoH-lacZ expression; strain ΔmtrR + mtrR WT (pGCC3-mtrR), hormone 12.5 µM",52 Miller units
same,"β-galactosidase activity, rpoH-lacZ, Mean","rpoH-lacZ expression; strain ΔmtrR + mtrR WT (pGCC3-mtrR), hormone 25 µM",63 Miller units
same,"β-galactosidase activity, rpoH-lacZ, Mean","rpoH-lacZ expression; strain ΔmtrR + mtrR WT (pGCC3-mtrR), hormone 50 µM",68 Miller units
same,"Plate-6 (Testosterone) Miller units, Mean","rpoH-lacZ expression; testosterone 6.25 µM, plate column 3",43 Miller units
same,"Plate-6 (Testosterone) Miller units, Mean","rpoH-lacZ expression; testosterone 6.25 µM, plate column 9 (second strain set, columns 7-12)",64 Miller units
same,"Plate-6 (Testosterone) Miller units, Mean","rpoH-lacZ expression; testosterone 12.5 µM, plate column 4",52 Miller units
same,"Plate-6 (Testosterone) Miller units, Mean","rpoH-lacZ expression; testosterone 12.5 µM, plate column 10 (second strain set, columns 7-12)",62 Miller units
same,"Plate-6 (Testosterone) Miller units, Mean","rpoH-lacZ expression; testosterone 25 µM, plate column 5",63 Miller units
same,"Plate-6 (Testosterone) Miller units, Mean","rpoH-lacZ expression; testosterone 25 µM, plate column 11 (second strain set, columns 7-12)",65 Miller units
same,"Plate-6 (Testosterone) Miller units, Mean","rpoH-lacZ expression; testosterone 50 µM, plate column 6",68 Miller units
same,"Plate-6 (Testosterone) Miller units, Mean","rpoH-lacZ expression; testosterone 50 µM, plate column 12 (second strain set, columns 7-12)",57 Miller units
same,growth curve reading after BLANKING (testosterone run),"FA19-rpoH-lacZ; 0 hr, 0.1 µM",0.013
same,"growth curve reading, raw replicates (testosterone run)","FA19-rpoH-lacZ; 0 hr, 0.1 µM",0.046
same,growth curve reading after BLANKING (testosterone run),"FA19-rpoH-lacZ; 0 hr, 1 µM",0.013
same,"growth curve reading, raw replicates (testosterone run)","FA19-rpoH-lacZ; 0 hr, 1 µM",0.046
same,growth curve reading after BLANKING (testosterone run),"FA19-rpoH-lacZ; 0 hr, 10 µM",0.013
same,"growth curve reading, raw replicates (testosterone run)","FA19-rpoH-lacZ; 0 hr, 10 µM",0.046
same,growth curve reading after BLANKING (testosterone run),"FA19-rpoH-lacZ; 0 hr, 50 µM",0.013
same,"growth curve reading, raw replicates (testosterone run)","FA19-rpoH-lacZ; 0 hr, 50 µM",0.046
same,growth curve reading after BLANKING (testosterone run),"FA19-rpoH-lacZ; 0 hr, 100 µM",0.013
same,"growth curve reading, raw replicates (testosterone run)","FA19-rpoH-lacZ; 0 hr, 100 µM",0.046
same,growth curve reading after BLANKING (testosterone run),"FA19-rpoH-lacZ; 2 hr, 0.1 µM",0.048
same,"growth curve reading, raw replicates (testosterone run)","FA19-rpoH-lacZ; 2 hr, 0.1 µM",0.082 and 0.080 and 0.081
same,growth curve reading after BLANKING (testosterone run),"FA19-rpoH-lacZ; 2 hr, 1 µM",0.047
same,"growth curve reading, raw replicates (testosterone run)","FA19-rpoH-lacZ; 2 hr, 1 µM",0.077 and 0.081 and 0.082
same,growth curve reading after BLANKING (testosterone run),"FA19-rpoH-lacZ; 2 hr, 10 µM",0.047
same,"growth curve reading, raw replicates (testosterone run)","FA19-rpoH-lacZ; 2 hr, 10 µM",0.079 and 0.083
same,growth curve reading after BLANKING (testosterone run),"FA19-rpoH-lacZ; 2 hr, 50 µM",0.049
same,"growth curve reading, raw replicates (testosterone run)","FA19-rpoH-lacZ; 2 hr, 50 µM",0.083 and 0.081
same,growth curve reading after BLANKING (testosterone run),"FA19-rpoH-lacZ; 2 hr, 100 µM",0.048
same,"growth curve reading, raw replicates (testosterone run)","FA19-rpoH-lacZ; 2 hr, 100 µM",0.089 and 0.075 and 0.078
same,growth curve reading after BLANKING (testosterone run),"FA19-rpoH-lacZ; 3 hr, 0.1 µM",0.071
same,growth curve reading after BLANKING (testosterone run),"FA19-rpoH-lacZ; 3 hr, 1 µM",0.076
same,growth curve reading after BLANKING (testosterone run),"FA19-rpoH-lacZ; 3 hr, 10 µM",0.073
same,growth curve reading after BLANKING (testosterone run),"FA19-rpoH-lacZ; 3 hr, 50 µM",0.076
same,growth curve reading after BLANKING (testosterone run),"FA19-rpoH-lacZ; 3 hr, 100 µM",0.077
same,"growth curve reading, raw replicates (testosterone run)","FA19-rpoH-lacZ; 3 hr, 100 µM",0.116
same,growth curve reading after BLANKING (testosterone run),"FA19-rpoH-lacZ; 4.03 hr, 0.1 µM",0.095
same,"growth curve reading, raw replicates (testosterone run)","FA19-rpoH-lacZ; 4.03 hr, 0.1 µM",0.117
same,growth curve reading after BLANKING (testosterone run),"FA19-rpoH-lacZ; 4.03 hr, 1 µM",0.101
same,growth curve reading after BLANKING (testosterone run),"FA19-rpoH-lacZ; 4.03 hr, 10 µM",0.099
same,growth curve reading after BLANKING (testosterone run),"FA19-rpoH-lacZ; 4.03 hr, 50 µM",0.102
same,growth curve reading after BLANKING (testosterone run),"FA19-rpoH-lacZ; 4.03 hr, 100 µM",0.108
same,"growth curve reading, raw replicates (testosterone run)","FA19-rpoH-lacZ; 4.03 hr, 100 µM",0.148
same,growth curve reading after BLANKING (testosterone run),"FA19-rpoH-lacZ; 5.03 hr, 0.1 µM",0.121
same,"growth curve reading, raw replicates (testosterone run)","FA19-rpoH-lacZ; 5.03 hr, 0.1 µM",0.160 and 0.163
same,growth curve reading after BLANKING (testosterone run),"FA19-rpoH-lacZ; 5.03 hr, 1 µM",0.127
same,"growth curve reading, raw replicates (testosterone run)","FA19-rpoH-lacZ; 5.03 hr, 1 µM",0.163 and 0.161 and 0.157
same,growth curve reading after BLANKING (testosterone run),"FA19-rpoH-lacZ; 5.03 hr, 10 µM",0.125
same,"growth curve reading, raw replicates (testosterone run)","FA19-rpoH-lacZ; 5.03 hr, 10 µM",0.164 and 0.157 and 0.153
same,growth curve reading after BLANKING (testosterone run),"FA19-rpoH-lacZ; 5.03 hr, 50 µM",0.130
same,"growth curve reading, raw replicates (testosterone run)","FA19-rpoH-lacZ; 5.03 hr, 50 µM",0.161 and 0.162 and 0.165
same,growth curve reading after BLANKING (testosterone run),"FA19-rpoH-lacZ; 5.03 hr, 100 µM",0.139
same,"growth curve reading, raw replicates (testosterone run)","FA19-rpoH-lacZ; 5.03 hr, 100 µM",0.174 and 0.161 and 0.181
same,growth curve reading after BLANKING (testosterone run),"FA19-rpoH-lacZ; 6.03 hr, 0.1 µM",0.152
same,"growth curve reading, raw replicates (testosterone run)","FA19-rpoH-lacZ; 6.03 hr, 0.1 µM",0.171 and 0.189 and 0.195
same,growth curve reading after BLANKING (testosterone run),"FA19-rpoH-lacZ; 6.03 hr, 1 µM",0.157
same,"growth curve reading, raw replicates (testosterone run)","FA19-rpoH-lacZ; 6.03 hr, 1 µM",0.195 and 0.191 and 0.185
same,growth curve reading after BLANKING (testosterone run),"FA19-rpoH-lacZ; 6.03 hr, 10 µM",0.151
same,"growth curve reading, raw replicates (testosterone run)","FA19-rpoH-lacZ; 6.03 hr, 10 µM",0.192 and 0.181 and 0.179
same,growth curve reading after BLANKING (testosterone run),"FA19-rpoH-lacZ; 6.03 hr, 50 µM",0.161
same,"growth curve reading, raw replicates (testosterone run)","FA19-rpoH-lacZ; 6.03 hr, 50 µM",0.192 and 0.195
same,growth curve reading after BLANKING (testosterone run),"FA19-rpoH-lacZ; 6.03 hr, 100 µM",0.177
same,"growth curve reading, raw replicates (testosterone run)","FA19-rpoH-lacZ; 6.03 hr, 100 µM",0.198
same,growth curve reading after BLANKING (testosterone run),"FA19-rpoH-lacZ; 7.03 hr, 0.1 µM",0.177
same,"growth curve reading, raw replicates (testosterone run)","FA19-rpoH-lacZ; 7.03 hr, 0.1 µM",0.195
same,growth curve reading after BLANKING (testosterone run),"FA19-rpoH-lacZ; 7.03 hr, 1 µM",0.182
same,"growth curve reading, raw replicates (testosterone run)","FA19-rpoH-lacZ; 7.03 hr, 1 µM",0.210
same,growth curve reading after BLANKING (testosterone run),"FA19-rpoH-lacZ; 7.03 hr, 10 µM",0.178
same,"growth curve reading, raw replicates (testosterone run)","FA19-rpoH-lacZ; 7.03 hr, 10 µM",0.205
same,"growth curve reading, raw replicates (testosterone run)","FA19-rpoH-lacZ; 7.03 hr, 100 µM",0.250
same,growth curve reading after BLANKING (testosterone run),"FA19-rpoH-lacZ; 7.3 hr, 100 µM",0.226
same,"growth curve reading, raw replicates (testosterone run)","FA19-rpoH-lacZ; 7.3 hr, 100 µM",0.266 and 0.272
same,growth curve reading after BLANKING (testosterone run),"FA19-rpoH-lacZ; […], 0.1 µM",0.028
same,growth curve reading after BLANKING (testosterone run),"FA19-rpoH-lacZ; […], 1 µM",0.027
same,growth curve reading after BLANKING (testosterone run),"FA19-rpoH-lacZ; […], 10 µM",0.026
same,growth curve reading after BLANKING (testosterone run),"FA19-rpoH-lacZ; […], 50 µM",0.026
same,growth curve reading after BLANKING (testosterone run),"FA19-rpoH-lacZ; […], 100 µM",0.025
